Reference: patent US20210100245A1, “SYNERGISTIC FORMULATIONS FOR CONTROL AND REPELLENCY OF BITING ARTHROPODS” (BEDOUKIAN RESEARCH, INC., priority 2019, published 2021)

Tested on: Adult female Aedes aegypti
Assay: Membrane feeder repellency test: mosquitoes probing treated collagen membranes over blood-filled wells
Assay type: in vivo
Settings: for Test results, percentage relative to 0.3 wt % DEET in the same test: total repellent 0.30%, relative to 0.3 wt % DEET (=100%); for Test results (quantity not named; percentage from mosquito probing counts): 6.25 μl on collagen membrane, probes counted every 2 min for 20 min
Protocol: Adult female Aedes aegypti were obtained from the i2LResearch USA, Inc. colony. Two hundred fifty (250) mosquitoes were used per replicate (seven replicates). Mosquitoes were at least 6 days old and had been deprived of sucrose solution for at least 18 hours prior to testing.
An exposure container was used to present the mosquitoes with a choice of blood-filled wells that were covered with collagen membranes (3 cm in diameter). The collagen membranes were treated by pipetting 6.25 μI of the test treatment onto the appropriate membrane and spreading it evenly with the tip of the pipette.
Exposure container. A 30.5 cm×30.5 cm×30.5 cm container (rigid plastic frame and a sleeved entry on one side and a sliding trap door on the bottom). The container was supported by four (4 cm high) legs.
Membrane feeder. Five wells (3 cm in diameter×8 mm in depth) in line on a hollow plastic block (6 cm wide×22 cm long×3 cm deep). The plastic block fit into the bottom of the exposure container. Hoses mounted on either end of the membrane feeder carried warm water that was pumped from a water bath. The sliding plastic trap door in the bottom of the exposure container covered and uncovered the wells in the membrane feeder, allowing mosquitoes to access the blood-filled wells that were covered with treated collagen membranes.
Study set-up. The membrane feeder was connected to a heated water bath, and warm water passed through the feeder via a circulating pump so that the wells were warmed to 96-100° F. Seventy-two (72) mg of ATP (disodium salt) were added to 26 ml of bovine blood. Sodium citrate was also added to the blood during collection to prevent clotting. The blood was poured into the wells until it completely filled each well (meniscus slightly above the level of the well).
Circular pieces (3 cm in diameter) of collagen membrane were placed over each of the wells. Care was taken to eliminate all air bubbles from between the membrane and the surface of the blood. Once wells were prepared, the blood was allowed to warm until the membrane temperature reached […]. Temperature was confirmed using a surface thermometer.
Treatment and exposure to mosquitoes. Once the collagen membranes were placed over the blood-filled wells, they were treated as described above. The membranes were allowed to dry for five minutes. Then the exposure container was placed on the membrane feeder. The trap door in the floor of the container was slid back, exposing the mosquitoes to the membranes. The number of mosquitoes probing the membrane covering each well was recorded every two minutes for twenty minutes. If a minimum of 20 total control probes were not achieved in a replicate, the replicate was repeated.
The above procedures were repeated until seven acceptable replicates were completed. […]

Which “Test results, percentage relative to 0.3 wt % DEET in the same test” value does the source give for CCN(CC)C(=O)c1cccc(C)c1 [DEET, N,N-diethyl-m-toluamide, reference compound] here?
The value was 100.0%.

What does the source list for CC1CCC(C(C)C)C(OCC(O)CO)C1 (stereo not shown) [Coolact 10, menthoxypropane-1,2-diol]?
Test results (quantity not named; percentage from mosquito probing counts) (concentration 0.15%): 45.4%; Test results (quantity not named; percentage from mosquito probing counts) (concentration 0.30%): 41.5%

Which “Test results, percentage relative to 0.3 wt % DEET in the same test” value does the source give for CCNC(=O)C1CC(C)CCC1C(C)C (stereo not shown) [WS3, N-ethyl-p-menthane-3-carboxamide] here?
Its value is 130.0%.
